The results in this text go back to US11964971B2, “Methods and compositions for modulating splicing” (Skyhawk Therapeutics, Inc., priority 2019, dated 2024).

The subject of data set [1] is MDR1 (P-gp). As to the kind of experiment: MDCK-MDR1 permeability assay, blood-brain-barrier penetration potential. The following applies: dog, MDCK-MDR1, pH 7.4, MDCK-MDR1 Efflux Ratio.
Procedure: (§1) Experimental Procedure: MDR1-MDCK cell monolayers are grown to confluence on collagen-coated, microporous membranes in 12-well assay plates. The permeability assay buffer is Hanks' balanced salt solution containing 10 mM HEPES and 15 mM glucose at a pH of 7.4. The buffer in the receiver chamber also contained 1% bovine serum albumin. The dosing solution concentration is 5 μM of test article in the assay buffer. Cell monolayers are dosed on the apical side (A-to-B) or basolateral side (B-to-A) and incubated at 37° C. with 5% CO2 in a humidified incubator. Samples are taken from the donor and receiver chambers at 120 minutes. Each determination is performed in duplicate. The flux of lucifer yellow is also measured post-experimentally for each monolayer to ensure no damage was inflicted to the cell monolayers during the flux period. All samples are assayed by LC-MS/MS using electrospray ionization.
(§2) Analytical Method: Liquid Chromatography • Column: Waters ACQUITY UPLC BEH Phenyl 30×2.1 mm, 1.7 μm • M.P. Buffer: 25 mM ammonium formate buffer, pH 3.5 • Aqueous Reservoir (A): 90% water, 10% buffer • Organic Reservoir (B): 90% acetonitrile, 10% buffer • Flow Rate: 0.7 mL/minute • Gradient Program:
(§3) • Total Run Time: 1.00 minute • Autosampler: 2 μL injection volume • Wash1: water/methanol/2-propanol:1/1/1; with 0.2% formic acid • Wash2: 0.1% formic acid in water • Brain Penetration • Potential Classification: A-B Papp≥3.0 and Efflux Ratio<3.0: High • A-B Papp≥3.0 and 10>Efflux Ratio≥3.0: Moderate • A-B Papp≥3.0 and Efflux Ratio≥10: Low • A-B Papp<3.0: Low
Data set [2] has as its system MDR1-MDCK cell monolayers. The conditions noted are these: dog, MDCK-MDR1, 120 min, 5 μM, pH 7.4.
Procedure: as §1, §2, §3
In data set [3] the test system is MDR1. Kind of data set: in vitro. The conditions noted are these: dog; for Papp A→B at 120 min, 5 μM: MDCK-MDR1, pH 7.4, MDCK-MDR1: Papp A-B (10^−6, cm/s); for Papp B→A at 120 min, 5 μM: MDCK-MDR1, pH 7.4, MDCK-MDR1: Papp B-A (10^−6, cm/s).
Procedure: as §1, §2, §3
In data set [4] the test system is SMN protein. As to the kind of experiment: SMN protein assay (MSD) in SMA patient fibroblasts (GM03813). The class given is cell-based, human. The procedure, abridged:
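Absolute SMN protein measured by Mesoscale Discovery assay in lysates, calibrated per plate with SMN standards (1–19.5 μg/ml). Cells: GM03813 SMA fibroblasts, 7000/well, 48 h compound exposure at doses of 2.5 μM down to 0.6 nM.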

The term efflux ratio denotes the permeability from basolateral to apical divided by that in the opposite direction, in the common usage. In general, Papp A→B refers to how fast a substance crosses the layer from the apical side. The term Papp B→A denotes how fast a substance crosses the layer from the basolateral side. For orientation: EC50 means the concentration at which the effect is half-maximal. Read a high EC50 as lower potency in that assay. In the case of `C[C@]12CC[C@](C)(N1)[C@H](F)[C@H](Oc1cnc(-c3ccc(-c4cn[nH]c4)cc3O)cn1)C2` [Compound 2E2, 2-(5-(((1S,2S,3R,5R)-2-fluoro-1,5-dimethyl-8-azabicyclo[3.2.1]octan-3-yl)oxy)pyrazin-2-yl)-5-(1H-pyrazol-4-yl)phenol], the efflux ratio at 120 min, 5 μM in data set [1] came to 4. In data set [2], the “MDCK-MDR1: % Recov A-B (%)” value is 71% and the “MDCK-MDR1: % Recov B-A (%)” value is reported as 79%. In data set [3], this compound gave an apparent permeability from apical to basolateral (Papp A→B) at 120 min, 5 μM of 96 nm/s and a Papp B→A at 120 min, 5 μM of 347 nm/s. Besides, in data set [4], the concentration giving a half-maximal response (EC50) fell in the range of 501 to 10000 nM.
In the case of `CN(c1cnc(-c2ccc(-c3cnn(C)c3)cc2O)cn1)[C@@H]1C[C@H]2CCC[C@H](N2)[C@@H]1F` [Compound 4E1, 2-(5-(((1S,2S,3R,5R)-2-fluoro-9-azabicyclo[3.3.1]nonan-3-yl)(methyl)amino)pyrazin-2-yl)-5-(1-methyl-1H-pyrazol-4-yl)phenol], the efflux ratio at 120 min, 5 μM in data set [1] stood at 6. For the same compound, in data set [2], the “MDCK-MDR1: % Recov A-B (%)” value was 44% and the “MDCK-MDR1: % Recov B-A (%)” value is given as 66%. Besides, in data set [3], the apical-to-basolateral permeability (Papp A→B) at 120 min, 5 μM was found to be 48.9 nm/s and the Papp B→A at 120 min, 5 μM is 314 nm/s. Further, in data set [4], the concentration for a half-maximal effect (EC50) is 51 to 100 nM.
As to `CN(c1cnc(-c2cc3ncn(CC(F)(F)F)c(=O)c3cc2O)cn1)[C@H]1C[C@@H]2CCC[C@@H](N2)[C@H]1F` [Compound 18E2, 7-(5-(((1R,2R,3S,5S)-2-fluoro-9-azabicyclo[3.3.1]nonan-3-yl)(methyl)amino)pyrazin-2-yl)-6-hydroxy-3-(2,2,2-trifluoroethyl)quinazolin-4(3H)-one], the efflux ratio at 120 min, 5 μM in data set [1] is 56. For the same compound, in data set [2], the “MDCK-MDR1: % Recov A-B (%)” value is recorded as 82% and the “MDCK-MDR1: % Recov B-A (%)” value was determined as 87%. In data set [3], this compound gave a Papp A→B at 120 min, 5 μM of 13.3 nm/s and a basolateral-to-apical permeability (Papp B→A) at 120 min, 5 μM of 735 nm/s. In addition, the 50% effective concentration (EC50) in data set [4] lay in the range of 501 to 10000 nM.
On to `CN(c1cnc(-c2ccc(-c3cn[nH]c3)cc2O)cn1)[C@@H]1C[C@@]2(C)CCC[C@](C)(N2)[C@@H]1F` [Compound 23E1, 2-(5-(((1S,2R,3R,5R)-2-fluoro-1,5-dimethyl-9-azabicyclo[3.3.1]nonan-3-yl)(methyl)amino)pyrazin-2-yl)-5-(1H-pyrazol-4-yl)phenol], for which, in data set [1], the efflux ratio at 120 min, 5 μM came out at 4. In addition, in data set [2], the “MDCK-MDR1: % Recov A-B (%)” value is 56% and the “MDCK-MDR1: % Recov B-A (%)” value is 78%. In data set [3], the Papp A→B at 120 min, 5 μM came to 90.7 nm/s and the Papp B→A at 120 min, 5 μM came to 387 nm/s. In data set [4], the concentration for a half-maximal effect (EC50) fell in the range of 501 to 10000 nM.
As for `COc1cc(-c2ccc(-c3cnc(N(C)[C@@H]4C[C@@]5(C)CCC[C@](C)(N5)[C@@H]4F)cn3)c(O)c2)cnn1` [Compound 24E1, 2-(5-(((1S,2R,3R,5R)-2-fluoro-1,5-dimethyl-9-azabicyclo[3.3.1]nonan-3-yl)(methyl)amino)pyrazin-2-yl)-5-(6-methoxypyridazin-4-yl)phenol], the efflux ratio at 120 min, 5 μM in data set [1] worked out at 3. Moreover, in data set [2], the “MDCK-MDR1: % Recov A-B (%)” value is given as 40% and the “MDCK-MDR1: % Recov B-A (%)” value turned out to be 42%. In data set [3], the Papp A→B at 120 min, 5 μM came out at 19.3 nm/s and the Papp B→A at 120 min, 5 μM was determined as 50.1 nm/s. The EC50 in data set [4] lay in the range of 101 to 500 nM.
`COc1cc(-c2ccc(-c3cnc(N(C)[C@H]4C[C@]5(C)CCC[C@@](C)(N5)[C@H]4F)cn3)c(O)c2)cnn1` [Compound 24E2, 2-(5-(((1R,2S,3S,5S)-2-fluoro-1,5-dimethyl-9-azabicyclo[3.3.1]nonan-3-yl)(methyl)amino)pyrazin-2-yl)-5-(6-methoxypyridazin-4-yl)phenol]: the efflux ratio at 120 min, 5 μM in data set [1] is 2. Also, in data set [2], the “MDCK-MDR1: % Recov A-B (%)” value is given as 37% and the “MDCK-MDR1: % Recov B-A (%)” value worked out at 44%. For the same compound, in data set [3], the apparent permeability from apical to basolateral (Papp A→B) at 120 min, 5 μM was 30.1 nm/s and the Papp B→A at 120 min, 5 μM was 69.9 nm/s. The compound further yielded an EC50 in data set [4] of 501 to 10000 nM.
